These compounds were tested against T1, human TRPV3 (Homo sapiens, UniProt Q8NET8) (assay: Calcium flux assay (FLIPR TETRA), inhibition of 2-APB response). Conditions: recombinant HEK293 cells stably expressing human TRPV3; 2-APB at its EC50.
T1 construct: expressed in transfected cells
T1 sequence (Q8NET8 1-790): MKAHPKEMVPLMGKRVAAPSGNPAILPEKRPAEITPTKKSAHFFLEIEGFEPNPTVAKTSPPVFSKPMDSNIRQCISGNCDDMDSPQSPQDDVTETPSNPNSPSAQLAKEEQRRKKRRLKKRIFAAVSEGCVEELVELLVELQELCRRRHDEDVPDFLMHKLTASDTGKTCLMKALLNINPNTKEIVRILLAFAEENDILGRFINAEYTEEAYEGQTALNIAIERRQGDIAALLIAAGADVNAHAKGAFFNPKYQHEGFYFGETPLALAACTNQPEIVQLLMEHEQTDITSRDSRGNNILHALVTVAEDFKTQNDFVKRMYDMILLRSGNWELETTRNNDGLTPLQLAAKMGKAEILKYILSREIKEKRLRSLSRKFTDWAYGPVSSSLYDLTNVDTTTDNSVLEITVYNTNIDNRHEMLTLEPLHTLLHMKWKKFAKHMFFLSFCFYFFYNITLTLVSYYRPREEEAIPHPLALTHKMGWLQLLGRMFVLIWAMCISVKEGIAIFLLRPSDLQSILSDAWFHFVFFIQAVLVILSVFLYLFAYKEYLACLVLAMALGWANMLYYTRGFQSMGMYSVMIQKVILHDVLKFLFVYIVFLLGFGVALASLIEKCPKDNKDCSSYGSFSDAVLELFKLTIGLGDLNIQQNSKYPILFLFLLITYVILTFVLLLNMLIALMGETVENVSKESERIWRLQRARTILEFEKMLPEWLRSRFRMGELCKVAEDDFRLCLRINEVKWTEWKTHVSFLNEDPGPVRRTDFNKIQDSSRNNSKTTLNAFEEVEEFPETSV
Assay type: cell-based
Protocol: (i) In Vitro Methods-Calcium Flux Assays:
Experiments were conducted using the FLIPR^TETRA®. On the day prior to the experiment, recombinant HEK293 cells that stably express human and mouse TRPV3 were removed from tissue culture flasks and plated in growth medium at 20,000 cells/well into black-walled clear-bottom 384-well Biocoat™ poly-D-lysine assay plates (BD Biosciences, Bedford, Mass.) using a Multidrop® dispenser (ThermoScientific, Waltham, Mass.). On the day of the experiment, growth medium was removed, and the no-wash FLIPR® Calcium-4 dye (λEX=470-495 nm, λEM=515-575 nm; Molecular Devices, Sunnyvale, Calif.) was added to each well using the Multidrop® dispenser. Cells were incubated for 90-120 minutes in the dark. Compounds were dissolved in DMSO to prepare a 10 mM stock solution. The intensity of the fluorescence was captured and digitally transferred to an interfaced PC. The peak increase in fluorescence over baseline (relative fluorescence units) was calculated and expressed as the percentage of the maximal 2-APB (2-aminoethoxyldiphenyl borate) response (in the absence of compound).

Row | IC50 [µM] | Compound
1 | 5.1 to 20 | OC(c1ccccn1)C1(c2cc(F)cc(C(F)(F)F)c2)CCC1 (centres unmarked) [Example 14, {1-[3-fluoro-5-(trifluoromethyl)phenyl]cyclobutyl}(pyridin-2-yl)methanol]
2 | 5.1 to 20 | CS(=O)(=O)c1ccc(C2(C(O)c3ccccn3)CCC2)cc1 (centres unmarked) [Example 16, {1-[4-(methylsulfonyl)phenyl]cyclobutyl}(pyridin-2-yl)methanol]
3 | 1.1 to 5 | OC(c1ccccn1)C1(c2ccc(C(F)(F)F)c(F)c2)CCC1 (centres unmarked) [Example 17, {1-[3-fluoro-4-(trifluoromethyl)phenyl]cyclobutyl}(pyridin-2-yl)methanol]
4 | 5.1 to 20 | OC(c1ccccn1)C1(c2ccccn2)CCC1 (centres unmarked) [Example 19, pyridin-2-yl(1-pyridin-2-ylcyclobutyl)methanol]
5 | 5.1 to 20 | OC(c1ccccn1)C1(c2cccnc2)CCC1 (centres unmarked) [Example 20, pyridin-2-yl(1-pyridin-3-ylcyclobutyl)methanol]
6 | 5.1 to 20 | OC(c1ccccn1)C1(c2ccncc2)CCC1 (centres unmarked) [Example 21, pyridin-2-yl(1-pyridin-4-ylcyclobutyl)methanol]
7 | 5.1 to 20 | OC(c1ccccn1)C1(c2ccc(-c3ccccc3)cc2)CCC1 (centres unmarked) [Example 22, [1-(1,1′-biphenyl-4-yl)cyclobutyl](pyridin-2-yl)methanol]
8 | 0.501 to 1 | O[C@H](c1ccccn1)C1(c2ccc(C(F)(F)F)cc2F)CCC1 [Example 27, (S)-{1-[2-fluoro-4-(trifluoromethyl)phenyl]cyclobutyl}(pyridin-2-yl)methanol]
9 | 5.1 to 20 | OC(c1ncccn1)C1(c2ccccc2F)CCC1 (centres unmarked) [Example 32, [1-(2-fluorophenyl)cyclobutyl](pyrimidin-2-yl)methanol]
10 | 5.1 to 20 | OC(c1ncccn1)C1(c2ccc(F)cc2)CCC1 (centres unmarked) [Example 34, [1-(4-fluorophenyl)cyclobutyl](pyrimidin-2-yl)methanol]
11 | 5.1 to 20 | O[C@H](c1ncccn1)C1(c2ccc(C(F)(F)F)cc2)CCC1 [Example 41, (S)-pyrimidin-2-yl{1-[4-(trifluoromethyl)phenyl]cyclobutyl}methanol]
12 | 1.1 to 5 | O[C@@H](c1ncccn1)C1(c2ccc(C(F)(F)F)cc2)CCC1 [Example 42, (R)-pyrimidin-2-yl{1-[4-(trifluoromethyl)phenyl]cyclobutyl}methanol]
13 | 5.1 to 20 | CC(c1cccc(C(F)(F)F)c1)C1(C(O)c2ccccn2)CCC1 (centres unmarked) [Example 54, pyridin-2-yl(1-{1-[3-(trifluoromethyl)phenyl]ethyl}cyclobutyl)methanol]
14 | 1.1 to 5 | [1-(4-methylbenzyl)cyclobutyl](pyridin-2-yl)methanol [Example 52]

— patent US9156788B2, “TRPV3 modulators” (AbbVie Inc., priority 2010, dated 2015)
